Patent US9597407B2, “Targeted antimicrobial moieties” (C3 Jian, Inc., priority 2009, dated 2017)
Entries after “also recorded” stand apart in the source; their conditions may differ.

Legend:
[1] = test system: bacteria; assay: Binding of targeting peptides to microorganisms (Table 3); settings: preferably 1x PBS; for Target(s): microorganism bound by the targeting peptide, binding in aqueous buffers chosen by peptide solubility
[2] = test system: microorganisms; assay: Morphology, biofilm and growth disruption by peptides (Table 5); format: cell-based; design: key: A: Peptide aggregates; B: Less hyphal formation; Clumps; Diffuse clumps and small polyps; F: Diffuse growth; H: Thin; I: Growth inhibition; Microcolony formation; Rippled; Small polyps; Thick; W: Halo formation on top, microlonies on bottom
Source text: In certain embodiments peptides that induce alterations in phenotype or other biological activities can also be used as antimicrobial effector moieties.

Substance | Target(s) [1] | Organism, effect ([2]; M. luteus) | Organism, effect ([2]; S. epidermidis) | further results
PF-164 (EEVSRALAGIGLGLGCRIG; Peptide with targeting and/or antimicrobial activity) | S. epidermidis; also recorded: M. luteus; also recorded: E. coli; also recorded: C. jeikeium |  |  | Organism, effect ([2]; C. jeikeium): C. jeikeium (R)
PF-171 (TQVTLCRTW; Peptide with targeting and/or antimicrobial activity) | S. epidermidis; also recorded: E. coli; also recorded: P. aeruginosa; also recorded: S. pneumoniae | M. luteus (R) | S. epidermidis (R) | Organism, effect ([2]; B. subtilis): B. subtilis (D); Organism, effect ([2]; C. jejuni): C. jejuni (R); Organism, effect ([2]; MRSA): MRSA (M); Organism, effect ([2]; S. pneumoniae): S. pneumoniae (D)
PF-173 (AGRTAIVQGGG; Peptide with targeting and/or antimicrobial activity) | S. epidermidis; also recorded: M. luteus; also recorded: P. mirabilis; also recorded: E. coli; also recorded: P. aeruginosa; also recorded: C. albicans; also recorded: C. jeikeium; also recorded: C. jejuni |  | S. epidermidis (A) | Organism, effect ([2]; C. jeikeium): C. jeikeium (D)
PF-175 (RRRPAGQRPEKASQAMIAA; Peptide with targeting and/or antimicrobial activity) | S. epidermidis; also recorded: E. faecalis | M. luteus (S) |  | Organism, effect ([2]; B. subtilis): B. subtilis (D); Organism, effect ([2]; C. albicans): C. albicans (B); Organism, effect ([2]; C. jejuni): C. jejuni (M); Organism, effect ([2]; S. pneumoniae): S. pneumoniae (A)
PF-176 (RLTSNQFLTRITPFVFAQH; Peptide with targeting and/or antimicrobial activity) | S. epidermidis and M. luteus and P. mirabilis and E. coli and C. albicans and MRSA and E. faecalis and C. jeikeium | M. luteus (C) | S. epidermidis (C) | Organism, effect ([2]; C. jeikeium): C. jeikeium (D)
PF-180 (SGLGDLGFSSEAK; Peptide with targeting and/or antimicrobial activity) | S. epidermidis and M. luteus and P. aeruginosa and C. albicans and MRSA and E. faecalis and C. jejuni and M. smegmatis |  | S. epidermidis (C) | 
PF-186 (DADKNLSLERDRFAWRVAAP; Peptide with targeting and/or antimicrobial activity) | S. epidermidis and M. luteus and E. coli and P. aeruginosa and MRSA and C. jeikeium |  | S. epidermidis (C) | Organism, effect ([2]; C. jeikeium): C. jeikeium (A)
PF-188 (ARTFAGRLGTRYFGGLMRSTKA; Peptide with targeting and/or antimicrobial activity) | S. epidermidis and M. luteus and E. coli and C. albicans and MRSA and E. faecalis |  |  | Organism, effect ([2]; C. jeikeium): C. jeikeium (H)
PF-191 (QFCNFAWLFLASNNAQVSALA; Peptide with targeting and/or antimicrobial activity) | E. coli; also recorded: P. aeruginosa; also recorded: C. jejuni |  | S. epidermidis (A) | Organism, effect ([2]; C. jeikeium): C. jeikeium (R); Organism, effect ([2]; MRSA): MRSA (H)
PF-192 (VEEDEAPPPHY; Peptide with targeting and/or antimicrobial activity) | S. epidermidis; also recorded: M. luteus; also recorded: P. aeruginosa; also recorded: C. albicans; also recorded: E. faecalis; also recorded: C. jeikeium |  | S. epidermidis (D) | 
PF-204 (ALQKQDMNLPSVKNQLVFLKSTG; Peptide with targeting and/or antimicrobial activity) | S. epidermidis; also recorded: P. mirabilis; also recorded: E. coli; also recorded: P. aeruginosa; also recorded: C. albicans; also recorded: C. jejuni | M. luteus (C) | S. epidermidis (C) | Organism, effect ([2]; C. jeikeium): C. jeikeium (D); Organism, effect ([2]; P. aeruginosa): P. aeruginosa (H)
PF-208 (DAYHCHLVRSPDAHDLSMRIGFV; Peptide with targeting and/or antimicrobial activity) | S. epidermidis and C. albicans and MRSA and S. pneumoniae and E. faecalis and C. jeikeium and C. jejuni |  | S. epidermidis (D) | Organism, effect ([2]; C. jeikeium): C. jeikeium (A)
PF-212 (NDSKASN; Peptide with targeting and/or antimicrobial activity) | M. luteus; also recorded: P. aeruginosa | M. luteus (M) |  | 
PF-215 (ELKITNYNVNTVLYRYYKWGNDLCE; Peptide with targeting and/or antimicrobial activity) | S. epidermidis; also recorded: M. luteus; also recorded: P. aeruginosa; also recorded: A. baumannii | M. luteus (T) |  | 
PF-224 (DYFYITLSQKNTF; Peptide with targeting and/or antimicrobial activity) | S. epidermidis; also recorded: P. aeruginosa; also recorded: A. baumannii | M. luteus (T) |  | 
PF-233 (DANAMARTTIAIVYILALIALTISYSL; Peptide with targeting and/or antimicrobial activity) | S. epidermidis; also recorded: M. luteus; also recorded: P. aeruginosa; also recorded: A. baumannii |  | S. epidermidis (C) | 

Substance | Target(s) [1] | Organism, effect ([2]; M. luteus) | Organism, effect ([2]; S. epidermidis) | further results
PF-234 (RTPYILRS; Peptide with targeting and/or antimicrobial activity) | S. epidermidis; also recorded: M. luteus | M. luteus (T) |  | 
PF-235 (GIPFSKPHKRQVNYMKSDVLAYIEQNKMAHTA; Peptide with targeting and/or antimicrobial activity) | S. epidermidis; also recorded: M. luteus | M. luteus (T) |  | 
PF-249 (INSRYKISF; Peptide with targeting and/or antimicrobial activity) | S. epidermidis; also recorded: M. luteus | M. luteus (R) |  | 
PF-255 (DHKINESQHNPFRSDSNKQNVDFF; Peptide with targeting and/or antimicrobial activity) | P. aeruginosa | M. luteus (M) |  | 
PF-270 (MYLTPYAWIAVGSIFAFSVTTIKIGDQNDEKQKSHKNDVHKR; Peptide with targeting and/or antimicrobial activity) | S. epidermidis; also recorded: M. luteus; also recorded: P. aeruginosa | M. luteus (H) |  | 
PF-271 (AAQPQTTSP; Peptide with targeting and/or antimicrobial activity) | S. epidermidis; also recorded: M. luteus; also recorded: P. aeruginosa; also recorded: A. baumannii | M. luteus (T) |  | 
PF-273 (LVGALLIFVALIYMVLKGNADKN; Peptide with targeting and/or antimicrobial activity) | S. epidermidis; also recorded: M. luteus; also recorded: P. aeruginosa; also recorded: A. baumannii |  | S. epidermidis (C) | 
PF-276 (LDLALSTNSLNLEGFSF; Peptide with targeting and/or antimicrobial activity) | S. epidermidis | M. luteus (M) |  | 
PF-292 (SFVSTTVRLIFEESKRYKF; Peptide with targeting and/or antimicrobial activity) | S. epidermidis; also recorded: B. subtilis; also recorded: B. fragilis |  | S. epidermidis (C) | Organism, effect ([2]; B. subtilis): B. subtilis (C)
PF-294 (DFLVNFLWFKGELNWGKKRYK; Peptide with targeting and/or antimicrobial activity) | S. epidermidis; also recorded: C. difficile |  | S. epidermidis (C) | 
PF-297 (ISKGIDDIVYVINKILSIGNIFKIIKRK; Peptide with targeting and/or antimicrobial activity) | S. epidermidis; also recorded: B. subtilis; also recorded: B. fragilis |  | S. epidermidis (C) | Organism, effect ([2]; B. subtilis): B. subtilis (C)
PF-301 (GIVLIGLKLIPLLANVLN; Peptide with targeting and/or antimicrobial activity) | C. difficile |  | S. epidermidis (C) | Organism, effect ([2]; B. subtilis): B. subtilis (C)
PF-313 (YITSHKNARAIIKKFERDEILEEVITHYLNRK; Peptide with targeting and/or antimicrobial activity) | S. epidermidis; also recorded: C. difficile |  | S. epidermidis (C) | 
PF-344 (DERLPEAKAIRNFNGSVMVLGR; Peptide with targeting and/or antimicrobial activity) | B. subtilis; also recorded: C. jejuni |  |  | Organism, effect ([2]; E. coli): E. coli (A)
PF-350 (LAVILRAIVY; Peptide with targeting and/or antimicrobial activity) | S. epidermidis; also recorded: E. coli; also recorded: E. faecalis; also recorded: C. jeikeium; also recorded: C. jejuni |  | S. epidermidis (C) | Organism, effect ([2]; E. coli): E. coli (C); Organism, effect ([2]; MRSA): MRSA (C)
PF-395 (YCVPLGNMGNMNNKIW; Peptide with targeting and/or antimicrobial activity) |  |  | S. epidermidis (C) | Target(s) (microorganisms bound by the targeting peptide) ([1]; peptide binding in aqueous buffers that varied depending on peptide solubility): S. epidermidis; also recorded: E. coli; also recorded: P. aeruginosa; also recorded: S. pneumoniae; also recorded: E. faecalis; also recorded: C. jeikeium; also recorded: C. jejuni; Organism, effect ([2]; E. coli): E. coli (R); Organism, effect ([2]; MRSA): MRSA (C)
